Results: PubChem BioAssay (NCI)
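96-well plates; 48 h exposure; 5 concentrations. Endpoints by linear interpolation between flanking doses. Not reached: highest tested concentration assigned. The concentration for 50% growth inhibition is given as GI50. TGI: total growth inhibition.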

Assays:
Experiment in all cases: NCI tumour cell line growth inhibition, 48 h
SK-MEL-28 melanoma = test system: SK-MEL-28 melanoma
RXF 393 renal = test system: RXF 393 renal
HCT-15 colon = test system: HCT-15 colon
NCI-H226 lung = test system: NCI-H226 lung
NCI/ADR-RES ovarian = test system: NCI/ADR-RES ovarian
NCI-H460 lung = test system: NCI-H460 lung
OVCAR-8 ovarian = test system: OVCAR-8 ovarian
U251 CNS = test system: U251 CNS
SF-295 CNS = test system: SF-295 CNS
HOP-92 NSCLC = test system: HOP-92 NSCLC
T-47D breast = test system: T-47D breast
CCRF-CEM leukemia = test system: CCRF-CEM leukemia
A549 NSCLC = test system: A549 NSCLC
PC-3 prostate = test system: PC-3 prostate
UO-31 renal = test system: UO-31 renal
786-0 renal = test system: 786-0 renal
MDA-N = test system: MDA-N
MDA-MB-435 = test system: MDA-MB-435
HL-60(TB) leukemia = test system: HL-60(TB) leukemia
MDA-MB-231 breast = test system: MDA-MB-231 breast
SNB-19 CNS = test system: SNB-19 CNS
SK-OV-3 ovarian = test system: SK-OV-3 ovarian
SF-539 CNS = test system: SF-539 CNS
K-562 leukemia = test system: K-562 leukemia
TK-10 renal = test system: TK-10 renal
COLO 205 colon = test system: COLO 205 colon
LOX IMVI melanoma = test system: LOX IMVI melanoma
SN12C renal = test system: SN12C renal
MCF7 breast = test system: MCF7 breast
SW-620 colon = test system: SW-620 colon
MOLT-4 leukemia = test system: MOLT-4 leukemia
HOP-62 NSCLC = test system: HOP-62 NSCLC
A498 renal = test system: A498 renal
NCI-H23 lung = test system: NCI-H23 lung
HT29 colon = test system: HT29 colon
UACC-257 melanoma = test system: UACC-257 melanoma
EKVX NSCLC = test system: EKVX NSCLC
ACHN renal = test system: ACHN renal
HS 578T breast = test system: HS 578T breast
OVCAR-3 ovarian = test system: OVCAR-3 ovarian
SK-MEL-2 melanoma = test system: SK-MEL-2 melanoma
SNB-75 CNS = test system: SNB-75 CNS
RPMI-8226 leukemia = test system: RPMI-8226 leukemia
HCT-116 colon = test system: HCT-116 colon
SR leukemia = test system: SR leukemia
CAKI-1 renal = test system: CAKI-1 renal
NCI-H522 lung = test system: NCI-H522 lung
OVCAR-5 ovarian = test system: OVCAR-5 ovarian
KM12 colon = test system: KM12 colon
OVCAR-4 ovarian = test system: OVCAR-4 ovarian
IGROV1 ovarian = test system: IGROV1 ovarian
M14 melanoma = test system: M14 melanoma
HCC-2998 colon = test system: HCC-2998 colon
DU-145 prostate = test system: DU-145 prostate
MALME-3M melanoma = test system: MALME-3M melanoma
BT-549 breast = test system: BT-549 breast
SF-268 CNS = test system: SF-268 CNS
SK-MEL-5 melanoma = test system: SK-MEL-5 melanoma
UACC-62 melanoma = test system: UACC-62 melanoma

C=C(Cl)C(Cl)(CBr)CCCC(C)(C)Cl (stereo unspecified)
TGI (SK-MEL-28 melanoma): 25.4 µM
TGI (RXF 393 renal): > 100 µM
TGI (HCT-15 colon): 70.8 µM
TGI (NCI-H226 lung): > 100 µM
TGI (NCI/ADR-RES ovarian): > 74.1 µM
TGI (NCI-H460 lung): 17.7 µM
TGI (OVCAR-8 ovarian): 52.6 µM
TGI (U251 CNS): 4.16 µM
TGI (SF-295 CNS): 19.8 µM
TGI (HOP-92 NSCLC): 6.33 µM
TGI (T-47D breast): 4.15 µM
TGI (CCRF-CEM leukemia): > 62.3 µM
TGI (A549 NSCLC): 32.1 µM
TGI (PC-3 prostate): 9.36 µM
TGI (UO-31 renal): 29.3 µM
TGI (786-0 renal): 18 µM
TGI (MDA-N): > 79.5 µM
TGI (MDA-MB-435): > 73.3 µM
TGI (HL-60(TB) leukemia): 3.22 µM
TGI (MDA-MB-231 breast): > 59 µM
TGI (SNB-19 CNS): 30.1 µM
TGI (SK-OV-3 ovarian): > 100 µM
TGI (SF-539 CNS): 4.93 µM
TGI (K-562 leukemia): > 66.8 µM
TGI (TK-10 renal): 4.54 µM
TGI (COLO 205 colon): 20.8 µM
TGI (LOX IMVI melanoma): 40.9 µM
TGI (SN12C renal): > 100 µM
TGI (MCF7 breast): 20.2 µM
TGI (SW-620 colon): 41.4 µM
TGI (MOLT-4 leukemia): > 100 µM
TGI (HOP-62 NSCLC): 9.16 µM
TGI (A498 renal): 33.9 µM
TGI (NCI-H23 lung): > 100 µM
TGI (HT29 colon): 4.28 µM
TGI (UACC-257 melanoma): 13.8 µM
TGI (EKVX NSCLC): 32.6 µM
TGI (ACHN renal): 19.6 µM
TGI (HS 578T breast): 12.7 µM
TGI (OVCAR-3 ovarian): 6.51 µM
TGI (SK-MEL-2 melanoma): 32.3 µM
TGI (SNB-75 CNS): 37.6 µM
TGI (RPMI-8226 leukemia): 4.03 µM
TGI (HCT-116 colon): 30.8 µM
TGI (SR leukemia): > 100 µM
TGI (CAKI-1 renal): 3.8 µM
TGI (NCI-H522 lung): 28.1 µM
TGI (OVCAR-5 ovarian): 33 µM
TGI (KM12 colon): 3.6 µM
TGI (OVCAR-4 ovarian): 17 µM
TGI (IGROV1 ovarian): > 75.3 µM
TGI (M14 melanoma): > 100 µM
TGI (HCC-2998 colon): 29.5 µM
TGI (DU-145 prostate): 23.5 µM
TGI (MALME-3M melanoma): > 55.1 µM
TGI (BT-549 breast): > 100 µM
TGI (SF-268 CNS): 38.3 µM
TGI (SK-MEL-5 melanoma): > 90.8 µM
TGI (UACC-62 melanoma): 42.3 µM

Cc1nc2ccccc2nc1NNc1ccccc1
TGI (SK-MEL-28 melanoma): > 96.7 µM
GI50 (RXF 393 renal): 18.6 µM
TGI (RXF 393 renal): 78.7 µM
TGI (HCT-15 colon): > 82.6 µM
TGI (NCI-H226 lung): 85.7 µM
TGI (NCI/ADR-RES ovarian): 75.8 µM
TGI (NCI-H460 lung): > 88.7 µM
TGI (OVCAR-8 ovarian): 77.8 µM
TGI (U251 CNS): > 93.5 µM
TGI (SF-295 CNS): > 93.6 µM
TGI (HOP-92 NSCLC): 57 µM
TGI (T-47D breast): 46.9 µM
TGI (CCRF-CEM leukemia): 78.7 µM
TGI (A549 NSCLC): > 95.9 µM
TGI (PC-3 prostate): > 84.4 µM
TGI (UO-31 renal): > 86.5 µM
TGI (786-0 renal): > 92.1 µM
TGI (MDA-N): 48.9 µM
TGI (MDA-MB-435): 41.7 µM
TGI (HL-60(TB) leukemia): 58.8 µM
TGI (MDA-MB-231 breast): 70.7 µM
TGI (SNB-19 CNS): > 100 µM
GI50 (SK-OV-3 ovarian): 24.8 µM
TGI (SK-OV-3 ovarian): > 100 µM
TGI (SF-539 CNS): > 96.2 µM
TGI (K-562 leukemia): 74.5 µM
TGI (TK-10 renal): 98.7 µM
TGI (COLO 205 colon): 1.03 µM
TGI (LOX IMVI melanoma): 70.7 µM
TGI (SN12C renal): 72.9 µM
TGI (MCF7 breast): > 100 µM
TGI (SW-620 colon): > 74.9 µM
GI50 (MOLT-4 leukemia): 12.1 µM
TGI (MOLT-4 leukemia): 40.7 µM
TGI (HOP-62 NSCLC): 86.6 µM
TGI (A498 renal): > 94.5 µM
TGI (NCI-H23 lung): 77.2 µM
TGI (HT29 colon): 18.7 µM
TGI (UACC-257 melanoma): 74.3 µM
TGI (EKVX NSCLC): 68.2 µM
TGI (ACHN renal): 85.9 µM
TGI (HS 578T breast): > 95.1 µM
TGI (OVCAR-3 ovarian): 70.4 µM
TGI (SK-MEL-2 melanoma): > 80.8 µM
TGI (SNB-75 CNS): > 84.9 µM
TGI (RPMI-8226 leukemia): 41 µM
TGI (HCT-116 colon): > 100 µM
TGI (SR leukemia): 74.5 µM
TGI (CAKI-1 renal): > 100 µM
TGI (NCI-H522 lung): > 88.4 µM
TGI (OVCAR-5 ovarian): > 84.4 µM
TGI (KM12 colon): 63.4 µM
TGI (OVCAR-4 ovarian): > 87.8 µM
TGI (IGROV1 ovarian): 73.3 µM
TGI (M14 melanoma): 64.8 µM
TGI (HCC-2998 colon): > 100 µM
TGI (DU-145 prostate): > 86.1 µM
TGI (MALME-3M melanoma): 69.5 µM
TGI (BT-549 breast): 70 µM
TGI (SF-268 CNS): > 100 µM
TGI (SK-MEL-5 melanoma): 31.5 µM
TGI (UACC-62 melanoma): 43.4 µM
